According to PMC6149849, “Cymantrenyl-Nucleobases: Synthesis, Anticancer, Antitrypanosomal and Antimicrobial Activity Studies” (Molecules : A Journal of Synthetic Chemistry and Natural …, 2017):
Where two headings read alike, the source gives them in different places.

Assays:
[1] = tested on: S. epidermidis ATCC 12228; assay: Antibacterial liquid microdilution (CLSI M07-A8); type: cell-based, Staphylococcus epidermidis; details: 18 to 24 h
Procedure: (§1) Organometallic compounds play an increasingly important role in the search for new antibacterial agents. We, therefore, thought to investigate also the bactericidal activity of the newly synthesized cymantrenes 1–7, compound C and CymH. The antibacterial activity of the compounds was tested against Gram-positive methicillin-sensitive Staphylococcus aureus (MSSA), methicillin-resistant S. aureus (MRSA), vancomycin-intermediate S. aureus (VISA), S. epidermidis, and Gram-negative Escherichia coli bacterial strains, and expressed as minimal inhibitory concentration (MIC) values (Table 3).
(§2) The antibacterial activity of CymH, 1–7 and C and the reference drugs penicillin G and polymyxin B was tested by the liquid microdilution method under standard conditions using twofold dilution series, as described in the Clinical and Laboratory Standards Institute (CLSI), reference method M07-A8, and expressed as minimal inhibitory concentration (MIC) values. A panel of Gram-positive bacterial strains, S. aureus ATCC® 29213 (sensitive to methicillin, (MSSA)), S. aureus ATCC® 43300 (resistant to methicillin, (MRSA)), S. aureus ATCC 700787™ (intermediate to vancomycin, (VISA)), and S. epidermidis ATCC 12228™, and one Gram-negative, strain E. coli ATCC BAA-198™ (ESBL) were used. In addition, four clinical isolates of S. aureus (MSSA and MRSA) and two clinical isolates of S. epidermidis that were collected from different patients at the Medical University of Warsaw, Poland, were also tested. The bacterial cells were cultivated on tryptic soy agar (TSA) and nutrient agar (NA), according to ATCC recommendations. All of the strains were incubated at 37 °C. Tested compounds were dissolved in DMSO and then serially diluted twofold with cation-adjusted Mueller-Hinton broth (CAMHB). Then, 95 µL of the dilutions were dispensed into microdilution sterile plates (Mar-Four), followed by the addition of 5 µL of bacteria inoculum containing 5 × 10^4 CFU/mL. The final concentrations of the compounds ranged from 512 to 2 µg/mL. Each compound was tested in triplicate, and Penicillin G (8–0.15 µg/mL) and Polymyxin B (256–0.0625 µg/mL) were used as controls. The plates were incubated at 37 °C for 18 to 24 h depending on the bacterial strain. Thereafter, the absorbance was measured at λ = 540 nm and λ = 595 nm using a Spectrostar Omega microplate reader (BMG Labtech, Offenburg, Germany). The MIC value was defined as the lowest concentration of a compound that reduced the growth by 100%.

[2] = tested on: A549 (non-small cell lung carcinoma); assay: MTT cytotoxicity assay, A549
Procedure: Anticancer activity of cymantrenes was determined using a panel of human cancer cell lines that were derived from solid tumors. These included cell lines of estrogen-responsive, doxorubicin resistant, and triple negative breast adenocarcinomas (MCF-7, MCF-7/DX, and MDA-MB-231), ovarian adenocarcinoma (SKOV-3), non-small cell lung carcinoma (A549), hepatocellular carcinoma (HepG2), and glioblastoma (U-87 MG). The inhibitory effect of cymantrene derivatives on cell proliferation and growth was determined based on survival curves and was expressed as IC50 values (concentration required to achieve a 50% decrease in cell viability when compared to the viability of untreated control cells) calculated using GraphPad Prism 4.02 software for Windows (GraphPad Software, San Diego, CA, USA). Cell viability was determined by the MTT microplate spectrophotometric cytotoxicity test.
Anticancer activity of cymantrene derivetives were determined on the basis of their cytotoxic effects on a panel of human cancer cells, as derived from different types of solid tumors: estrogen responsive breast adenocarcinoma (MCF-7), triple negative breast adenocarcinoma (MDA-MB-231), ovarian adenocarcinoma (SKOV-3), non-small cell lung carcinoma (A549), hepatocellular carcinoma (HepG2), and glioblastoma (U-87 MG). Additionally, doxorubicin resistant breast adenocarcinoma cells (MCF-7/Dox) were also included for comparison. All of the cell lines were purchased from American Type Culture Collection (ATCC, Rockville, MD, USA), except the MCF-7/dox cell line, which was a generous gift from Professor Malgorzata Latocha from the Department of Cell Biology, Medical University of Silesia in Katowice, Poland.
Cells were grown as a monolayer in DMEM growth medium, supplemented with 10% FBS, penicillin (10 U/mL) and streptomycin (50 μg/mL), under standard conditions (37 °C, 5% CO2 and 95% air, 100% humidity) and periodically checked for Mycoplasma contamination.
The cytotoxicity of cymantrene derivatives was evaluated by the MTT microplate methods as described elsewhere by incubating the cells with increasing concentrations of tested compounds for 24 h. Briefly, 0.1 mL of logarithmically growing cells were seeded in a 96-well microplate (5 × 10^4 cells/well) a day before the experiments and after 24 h of culture, tested compounds, dissolved in DMSO, and diluted in culture medium, were added. […] After further incubation for 24 h, the medium was replaced with fresh medium and the cells were allowed to grow for additional 48 h. Then, the medium was aspirated and 0.05 mL of MTT (final concentration of […] medium) added to each well, and the cells were incubated for further 4 h. The absorbance of the product, resulting from the MTT reduction, was read with a microplate reader at 545 nm. The percentage of viable cells was calculated by comparing the absorbance of treated cells with that of the untreated control cells (taken as 100%). The IC50 concentration of each compound was calculated from the cell survival curves using GraphPad Prism 4.02 software for Windows (GraphPad Software, San Diego, CA, USA).

[3] = Determination of log Po/w by chromatographic (RP-HPLC) method, Soczewiński–Wachtmeister relationship; details: water/methanol, C18, 20 °C
Procedure: In this study, a chromatographic method and the Soczewiński–Wachtmeister relationship were used in order to determine the lipophilicity of the compounds [38, 39, 40, 41]
For the determination of log Po/w values, the newly synthesized compounds were analyzed by an Agilent 1200 system (Agilent Technologies, Santa Clara, CA, USA) equipped with a Zorbax Eclipse XDB column (C18, 250 × 4.6 mm, Agilent Technologies) and controlled by the software ChemStation Data Analysis. The separation was isocratic, and water/methanol (HPLC gradient grade, Sigma-Aldrich, St. Louis, MO, USA) mixtures containing 0.50, 0.55, 0.60, 0.65, 0.70, 0.75, 0.80, 0.85, 0.90 and 0.95 volume fractions of organic modifier were used as the mobile phase. The flow rate was 1.0 mL/min for the 7 and 2 and 0.8 mL/min for other compounds. The chromatographic peaks of test compounds were detected by UV absorbance at 230 nm. The column temperature was kept at 20 °C. The dead-time values were measured from the effluent peaks. All of the runs were performed in triplicate, and the resulting average values were used for the calculation of the retention factors.

[4] = tested on: MDA-MB-231 (triple negative breast adenocarcinoma); assay: MTT cytotoxicity assay, MDA-MB-231; type: cell-based, human
Procedure: Anticancer activity of cymantrenes was determined using a panel of human cancer cell lines that were derived from solid tumors. […] The inhibitory effect of cymantrene derivatives on cell proliferation and growth was determined based on survival curves and was expressed as IC50 values (concentration required to achieve a 50% decrease in cell viability when compared to the viability of untreated control cells) calculated using GraphPad Prism 4.02 software for Windows (GraphPad Software, San Diego, CA, USA). Cell viability was determined by the MTT microplate spectrophotometric cytotoxicity test.
The cytotoxicity of cymantrene derivatives was evaluated by the MTT microplate methods as described elsewhere [67] by incubating the cells with increasing concentrations of tested compounds for 24 h. Briefly, 0.1 mL of logarithmically growing cells were seeded in a 96-well microplate (5 × 10^4 cells/well) a day before the experiments and after 24 h of culture, tested compounds, dissolved in DMSO, and diluted in culture medium, were added. […] After further incubation for 24 h, the medium was replaced with fresh medium and the cells were allowed to grow for additional 48 h. Then, the medium was aspirated and 0.05 mL of MTT (final concentration of 5 mg/mL medium) added to each well, and the cells were incubated for further 4 h. The absorbance of the product, resulting from the MTT reduction, was read with a microplate reader at 545 nm. The percentage of viable cells was calculated by comparing the absorbance of treated cells with that of the untreated control cells (taken as 100%). The IC50 concentration of each compound was calculated from the cell survival curves using GraphPad Prism 4.02 software for Windows (GraphPad Software, San Diego, CA, USA).

[5] = tested on: Gram-positive bacterial strains, including MRSA and VISA pathogens; assay: Antibacterial activity over the panel of strains (summary statements); type: cell-based; details: for antibacterial activity in words: reference bacterial strains; for antibacterial activity (range over strains): summary range
Procedure: as §1, §2

[6] = read-out: cytotoxicity IC50, A549, 24 h incubation, MTT, means ± SEM
[7] = 24 h incubation, MTT, means ± SEM, read-out: cytotoxicity IC50, MDA-MB-231

| SMILES | MIC, S. epidermidis ATCC 12228 [1] | IC50 [2, 6] | Log Po/w [3] | IC50 [4, 7] | IC50 [2] | antibacterial activity in words [5] | antibacterial activity (range over strains) [5] | IC50 [4] |
| --- | --- | --- | --- | --- | --- | --- | --- | --- |
| Nc1ncnc2c1ncn2CCC(O)[C]12[CH]3[CH]4[CH]5[CH]1[Mn]4532[P](c1ccccc1)(c1ccccc1)c1ccccc1.[C-]#[O+].[C-]#[O+] (racemic) [Compound 5] | >256 µg/mL | 23.7 ± 0.86 µM | 4.8 | 56 ± 2.07 µM |  |  |  |  |
| O=C(CCn1cc(F)c(=O)[nH]c1=O)[C]12[CH]3[CH]4[CH]5[CH]1[Mn]4532.[C-]#[O+].[C-]#[O+].[C-]#[O+] (stereo not drawn) [Compound 1] | 8 µg/mL |  |  |  | 25.1 ± 1.25 µM | remarkable potency against all of the Gram-positive bacterial strains | 8 to 64 µg/mL | 27.9 ± 1.11 µM |
| COC(CCn1cnc2c(N(C)C)ncnc21)[C]12[CH]3[CH]4[CH]5[CH]1[Mn]4532.[C-]#[O+].[C-]#[O+].[C-]#[O+] (racemic) [Compound 6] | >512 µg/mL |  |  |  | 102 ± 1.08 µM |  |  | > 150 µM |
| CCC(=O)[C]12[CH]3[CH]4[CH]5[CH]1[Mn]4532.[C-]#[O+].[C-]#[O+].[C-]#[O+] (stereo not drawn) [Compound 7, propionylocymantrene] | >512 µg/mL |  |  |  | 30.6 ± 1.35 µM | not active |  | 63 ± 1.32 µM |
| COC(CCn1cc(F)c(=O)n(C)c1=O)[C]12[CH]3[CH]4[CH]5[CH]1[Mn]4532.[C-]#[O+].[C-]#[O+].[C-]#[O+] (racemic) [Compound 4] | >512 µg/mL |  |  |  | > 150 µM |  |  | > 150 µM |
| O=c1[nH]c(=O)n(CCC(O)[C]23[CH]4[CH]5[CH]6[CH]2[Mn]5643[P](c2ccccc2)(c2ccccc2)c2ccccc2)cc1F.[C-]#[O+].[C-]#[O+] (racemic) [Compound 3] | >256 µg/mL | 20.4 ± 1.09 µM | 5.2 | 35.7 ± 1.44 µM |  |  |  |  |
| O=[C]=[Mn](=[C]=O)(=[C]=O)[CH]1C=CC=C1 [CymH, tricarbonyl(η^5-cyclopentadienyl)manganese, reference compound] | >512 µg/mL | 87 ± 1.35 µM | 3.5 | 68.6 ± 1.74 µM |  | not active |  |  |
| Nc1ncnc2c1ncn2CCC(O)[C]12[CH]3[CH]4[CH]5[CH]1[Mn]45321[P](c2ccccc2)(c2ccccc2)CC[P]1(c1ccccc1)c1ccccc1.[C-]#[O+] (racemic) [Compound C] | 16 µg/mL |  |  |  | 16.5 ± 0.82 µM | remarkable potency against all of the Gram-positive bacterial strains | 8 to 64 µg/mL | 43.1 ± 1.95 µM |
